Reference: patent US20050058745A1, “Use of Labiatae herb preparations for extending the flavor shelf life of malt beverages” (priority 2003, published 2005)

Legend:
[1] = Trained panel flavor evaluation, light beer, forced aging; details: 5 ppm, 6 days 32° C.; for preservation of fresh flavor (words): light beer
Protocol: Separate solution of pure rosmarinic acid, pure carnosol and pure carnosic acid were prepared in ethanol as previously.
The light beer used in this study was approximately one month old and was purchased at a local market. Bottle additions were done as in Example 1.
The bottles were placed in a heated room at 32±1° C. in the dark. After the allotted aging time, the bottles of beer were transferred to a dark refrigerator and stored at approximately 2° to 4° C. until they were analyzed. Additional bottles from the same code were kept unopened in 2° to 4° C. storage. These unopened samples from the same beer code were labeled “Fresh Control” used to provide fresh samples for the trained panel.
At the appropriate times, a trained 7-member panel evaluated the beers. […] Five beers were evaluated at the session—Fresh Control, Aged No Addition, and Aged containing each one of the Labiatae treatments. The overall preference rank, the character and intensity of the aroma, the levels of paper/cardboard aroma and flavor, sour or off flavors, hang and astringency and bitterness quality and intensity were evaluated.

[2] = DPPH radical scavenging of highly hopped beer during aging at 40° C.; type: physicochemical; details: for effect on DPPH numbers: beers not treated with air; for effect on DPPH number: beers treated with air
Protocol: The bottle dosing methods used were the same as those described in Example 1. The following samples were made: • 1. 20 ppm Carnosic Acid • 2. 20 ppm Carnosic Acid plus Air • 3. 20 ppm Rosmarinic Acid • 4. 20 ppm Rosmarinic Acid plus Air • 5. 10 ppm Carnosic Acid+10 ppm Rosmarinic Acid • 6. 10 ppm Carnosic Acid+10 ppm Rosmarinic Acid+Air • 7. […] No Additions. Treatments 1 through 8 were put in a temperature regulated room set at 40° C. and maintained at ±1° C. At intervals of Zero time, 3 days, 7 days, 14 days, and 21 days, samples were withdrawn and Redox Potentials were measured by the method outlined in example 4. Color measurements were made using the L, a, b system on a Minolta Spectrophotometer model […], chroma and hue angle color measure units were recorded. DPPH radical scavenging numbers were measured using the following method. A de-ionized-H2O/EtOH buffer solution was prepared by dissolving 250 mg sodium citrate dihydrate and 10 g of absolute ethanol in 250 mL of deionized water. The solution was then titrated with 0.1 N Citric acid (6.404 g/L anhydrous citric acid) a drop at a time to reach a pH of between 4.35 and 4.5. To perform the test, about 0.04 g of DPPH was weighed to the nearest 0.1 mg in a 100 mL volumetric, recording the exact weight of DPPH. The DPPH was dissolved in methanol and methanol was added to bring the volume to the 100 mL mark. The solution was sonicated to facilitate dissolution. The beers to be measured were opened and 12 mL of each was poured into separate 15 mL centrifuge tubes, making sure that the volumes in all tubes were equal. The analyses were done in triplicate for each beer. An extra beer sample served as a spectrophotometer blank. The beer was degassed by centrifuging it for 15 min at 6,000 rpm. Into each of two 25 mL flasks was pipeted 5 mL of the pH 4.5 water-ethanol buffer. The spectrophotometer wavelength was set to 531 nm and a buffered water blank was zeroed. 1.0 mL of DPPH solution was added to the water buffer, which was swirled at the same time a timer was started. Just before 10 minutes had elapsed, the sample was transferred to a cuvette and the absorbance (ABL) was measured. The analysis was duplicated with another buffer. For accuracy it is necessary that great care be taken to add exactly 1 mL reagent. It is also important to swirl (mix) the samples consistently as the assay is sensitive to oxygen and to the amount of reagent used. Degassed beer was used to obtain a baseline at 531 nm. After centrifugation 5 mL of the beer was transferred into the appropriate labeled 25 mL flask. 1.0 mL of DPPH solution was added, the solution was swirled and the timer was started. The Absorbance ([…]) of the beer sample was recorded. This process was repeated for all samples. To eliminate any possible prejudice in order of analysis, samples were analyzed randomly. The following formula was used to calculate the amount of DPPH which reacts with 5 mL of beer: μmol DPPH=((1-[…]/ABL)×(g DPPH/394))×10^6

[3] = Blind sensory triangle panels, model citrus beverage
Protocol: Carbon filtered water was carbonated to 3.5 to 4 times the volume of beer. 59.2 ml of syrup was added to each 355 ml bottle. Each bottle was individually dosed with the treatments listed in Table 22 by adding 1.775 mL of a 1% (weight/volume) solution of carnosol or rosmarinic acid in ethanol to give 50 ppm of each. The bottle was filled to approximately 355 ml with carbonated water before it was capped and inverted. Fresh samples were stored in the refrigerator (0° C.). Heat exposed samples were aged in the oven (32° C.) for seven days. […] Each panel was balanced, with half of the panel given control as the odd sample, the other half of the panel given a treated sample as the odd sample. Panelists were allowed to drink water during the panel.

[4] = 0 days at 40° C., + Air, 20 ppm (RA + CA: 10 ppm each)
[5] = 0 days at 40° C., no air, 20 ppm (CA + RA: 10 ppm each)
[6] = 3 days at 40° C., + Air, 20 ppm (RA + CA: 10 ppm each)
[7] = 3 days at 40° C., no air, 20 ppm (CA + RA: 10 ppm each)
[8] = 7 days at 40° C., + Air, 20 ppm (RA + CA: 10 ppm each)
[9] = 7 days at 40° C., no air, 20 ppm (CA + RA: 10 ppm each)
[10] = 14 days at 40° C., + Air, 20 ppm (RA + CA: 10 ppm each)
[11] = 14 days at 40° C., no air, 20 ppm (CA + RA: 10 ppm each)
[12] = 21 days at 40° C., + Air, 20 ppm (RA + CA: 10 ppm each)
[13] = 21 days at 40° C., no air, 20 ppm (CA + RA: 10 ppm each)
[14] = Aged Control vs. Aged treated (32° C., seven days), 50 ppm (CA + RA: 50 ppm each)
[15] = Fresh Control vs. Fresh treated, 50 ppm

## CC(C)c1cc2c(c(O)c1O)[C@@]1(C(=O)O)CCCC(C)(C)[C@@H]1CC2 [CA, carnosic acid]
[1]
  panelists' preference for treated sample over Aged No Addition sample: 7 of 7 panelists preferred
  preservation of fresh flavor (words): very significantly retards the rate of staling
[2]; [4]
  DPPH Number: 53.3 μmol DPPH
[2]; [5]
  DPPH Number: 52.2 μmol DPPH
[2]; [6]
  DPPH Number: 67.2 μmol DPPH
[2]; [7]
  DPPH Number: 69.8 μmol DPPH
[2]; [8]
  DPPH Number: 55.6 μmol DPPH
[2]; [9]
  DPPH Number: 64.7 μmol DPPH
[2]; [10]
  DPPH Number: 61.7 μmol DPPH
[2]; [11]
  DPPH Number: 64.4 μmol DPPH
[2]; [12]
  DPPH Number: 56.5 μmol DPPH
[2]; [13]
  DPPH Number: 60.5 μmol DPPH
[2]
  effect on DPPH numbers: Neither CA nor RA has much impact on DPPH numbers
  effect on DPPH number: preserves the DPPH number in beers that have been treated with air
[3]; [14]
  Correct Panelists/Total Panelists (triangle test): 9/21
[3]; [15]
  Correct Panelists/Total Panelists (triangle test): 9/20

## O=C(/C=C/c1ccc(O)c(O)c1)O[C@H](Cc1ccc(O)c(O)c1)C(=O)O [RA, rosmarinic acid]
[1]
  panelists' preference for treated sample over Aged No Addition sample: 7 of 7 panelists preferred
  preservation of fresh flavor (words): very significantly retards the rate of staling
[2]; [4]
  DPPH Number: 49.9 μmol DPPH
[2]; [5]
  DPPH Number: 51.8 μmol DPPH
[2]; [6]
  DPPH Number: 67.1 μmol DPPH
[2]; [7]
  DPPH Number: 66.3 μmol DPPH
[2]; [8]
  DPPH Number: 57.7 μmol DPPH
[2]; [9]
  DPPH Number: 58.7 μmol DPPH
[2]; [10]
  DPPH Number: 56.3 μmol DPPH
[2]; [11]
  DPPH Number: 63.7 μmol DPPH
[2]; [12]
  DPPH Number: 50.5 μmol DPPH
[2]; [13]
  DPPH Number: 57.5 μmol DPPH
[2]
  effect on DPPH numbers: Neither CA nor RA has much impact on DPPH numbers
  effect on DPPH number: preserves the DPPH number in beers that have been treated with air
[3]; [14]
  Correct Panelists/Total Panelists (triangle test): 12/20
[3]; Fresh Control vs. Aged treated (32° C., seven days), 50 ppm (CA + RA: 50 ppm each)
  Correct Panelists/Total Panelists (triangle test): 12/21
[3]; [15]
  Correct Panelists/Total Panelists (triangle test): 10/22
[3]; aged for 7 days
  difference from untreated samples detected by triangle panel: significant difference with a 95% confidence level
